Data taken from patent US20210363233A1, “TREATMENT OF A DISEASE OF THE GASTROINTESTINAL TRACT WITH AN IL-12/IL-23 INHIBITOR” (Progenity, Inc., priority 2018, published 2021).
Structures can show the parent of a compound that is named as a salt. Where two headings read alike, the source gives them in different places.

What was measured:
[1] = Tissue, plasma and GI content pharmacokinetics of tacrolimus, oral vs intra-cecal ingestible device delivery (Example 10); type: in vivo, Yorkshire-Cross farm swine; details: female, Yorkshire-Cross, pig
Description: The primary objective of this study was to compare the tissue, plasma, rectal sample, and GI content pharmacokinetics of tacrolimus through oral versus intra-cecal ingestible device delivery in normal Yorkshire-Cross farm swine.
(§1) No further randomization procedure was employed.
Animals in Group 1 received an ingestible device containing 0.8 mL of vehicle solution (80% alcohol, 20% HCO-60). Animals in Group 2 received orally […] liquid formulation of tacrolimus at 4 mg/0.8 mL per animal (Prograf: 5 mg/mL). Animals in Group 3 received intra-cecally an ingestible device containing tacrolimus at 1 mg in 0.8 mL per ingestible device. Animals in Group 4 received intra-cecally an ingestible device containing tacrolimus at 2 mg in 0.8 mL per ingestible device. Animals in Group 5 received intra-cecally an ingestible device containing tacrolimus at 4 mg in 0.8 mL per ingestible device. To control for potential confounding effects of the surgery, all groups fast on Day −11 at least 24 hr before being subjected to anesthesia followed by surgical placements of a cecal port by a veterinary surgeon at Day −10. All animals were fasted for at least 12 hr prior to dosing on Day 1. Animals were dosed via either intra-cecal dosing (IC) or oral dosing (PO) at Day 1 (between […].). […]
Approximately 200˜400 mg of rectal content were collected, if available, with a fecal swab (Copan Diagnostics Nylon Flocked Dry Swabs, 502CS01). The fecal swab was pre-weighed and weighed after collection in the collection tube (Sterile Tube and Cap No Media, PFPM913S), and the sample weight was recorded. […]
For tissue necropsy, small intestine fluid and cecal fluid were collected separately from all the animals into two separate square plastic bottles, and stored at −20° C. The length and diameter of the cecum and the colon was measured from one animal in each group and recorded for reference. […] All samples were weighed, and the tissue sample weights were recorded. […] Around 3 grams of the total punched sample were collected into a pre-weighed 15-mL conical tube, and the tissue weight was recorded. […]

[2] = Pharmacokinetic study of oral vs intra-cecal administration of tacrolimus (Example 13); type: in vivo, Yorkshire-Cross farm swine; details: female, Yorkshire-Cross
From the text: as §1

[3] = tested on: cytokines involved in the JAK/STAT signaling pathway; details: PO or IC administration; 1 h and 3 h post-treatment

Compound	Cmax ([1]; in vivo, 0.09 mg/kg, Route PO, Dose (mg · kg) 0.09)	concentration at 12 h ([1]; in vivo, po, Trough (12 hr))	concentration at 12 h ([1]; whole blood, other: oral and intra-cecal (all groups), all groups (FIGS. 87-89 and Table 29), read-out: blood trough concentrations)	Cmax ([2]; pig, blood, Route PO, Dosage 0.09 mg/kg)	AUC(0-t) ([2]; pig, in vivo, po, 0.09 mg/kg)	Ratio Tissue(mean) (ng/g)/Trough(12 hr)(ng/mL) ([2]; pig, in vivo, po, 0.09 mg/kg)	Ratio Tissue(mean) (ng/g)/Trough(12 hr)(ng/mL) ([2]; swine, in vivo, po, 0.09 mg/kg)	IL-6 expression in plasma [3]
C=CC[C@@H]1/C=C(\C)C[C@H](C)C[C@H](OC)[C@H]2O[C@@](O)(C(=O)C(=O)N3CCCC[C@H]3C(=O)O[C@H](/C(C)=C/[C@@H]3CC[C@@H](O)[C@H](OC)C3)[C@H](C)[C@@H](O)CC1=O)[C@H](C)C[C@@H]2OC [tacrolimus]	3.53 ± 3.84 ng/mL	9.57 ± 0.291 ng/mL	< 10 ng/mL	3.53 ± 3.84 ng/mL	16.8 ± 3.64 ng·h/mL	0	0	–
C[C@@H]1CCN(C(=O)CC#N)C[C@@H]1N(C)c1ncnc2[nH]ccc12 [tofacitinib citrate]	–	–	–	–	–	–	–	inhibition of IL-6 expression was observed
